According to US8143393B2, “Substituted 4-amino-pyrrolotriazine derivatives useful for treating hyper-proliferative disorders and diseases associated with angiogenesis” (Bayer HealthCare LLC, priority 2005, dated 2012):

Target: T1, FGFR-1 (Homo sapiens, UniProt P11362)
T1 construct: GST; made in house
Experiment: FGFR-1 TR-FRET biochemical assay
Conditions: 0.6 uM ATP, 5 nM FGFR1-GST; bounds given in nM
Outline: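 FGFR1-GST (5 nM) was incubated with poly GT-biotin (25 nM) and 0.6 uM ATP in HEPES pH 7.5/MgCl2 with 1% DMSO for 1 h at room temperature. Phosphorylation was read by LANCE TR-FRET (Eu-anti-pTyr/SA-APC, 665/615 ratio). Percent inhibition was background-corrected against no-ATP wells, with final compound concentrations of 10 μM–0.128 nM.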

T1 sequence (P11362 22-822): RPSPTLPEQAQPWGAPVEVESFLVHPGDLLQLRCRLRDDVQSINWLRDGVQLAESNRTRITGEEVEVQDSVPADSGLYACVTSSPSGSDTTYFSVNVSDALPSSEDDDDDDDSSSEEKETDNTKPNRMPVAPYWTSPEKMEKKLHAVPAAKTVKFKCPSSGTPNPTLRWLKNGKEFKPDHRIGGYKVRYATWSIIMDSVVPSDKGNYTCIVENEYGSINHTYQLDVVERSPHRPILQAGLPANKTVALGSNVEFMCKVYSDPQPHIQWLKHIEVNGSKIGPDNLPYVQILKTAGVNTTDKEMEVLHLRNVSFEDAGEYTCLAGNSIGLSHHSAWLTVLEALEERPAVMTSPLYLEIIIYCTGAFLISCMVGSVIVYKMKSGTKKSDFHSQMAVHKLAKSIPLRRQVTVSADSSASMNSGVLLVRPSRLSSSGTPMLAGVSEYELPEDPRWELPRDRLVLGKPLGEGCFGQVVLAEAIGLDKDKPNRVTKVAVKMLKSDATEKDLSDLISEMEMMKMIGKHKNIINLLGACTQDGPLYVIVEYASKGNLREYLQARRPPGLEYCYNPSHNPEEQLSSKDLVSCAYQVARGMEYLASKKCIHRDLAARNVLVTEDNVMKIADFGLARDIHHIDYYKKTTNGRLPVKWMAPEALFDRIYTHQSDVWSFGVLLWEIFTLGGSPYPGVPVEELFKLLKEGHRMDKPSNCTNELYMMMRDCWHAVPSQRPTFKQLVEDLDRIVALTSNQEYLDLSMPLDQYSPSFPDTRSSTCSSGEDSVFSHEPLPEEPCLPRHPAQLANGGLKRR

| SMILES | IC50 [nM] |
| --- | --- |
| CC(C)(C)OC(=O)N1CCC(c2cc(-c3ccc(NC(=O)Nc4cc(C(F)(F)F)ccn4)c(F)c3)c3c(N)ncnn23)C1 (stereo not drawn) [Example 208, tert-butyl 3-{4-amino-5-[3-fluoro-4-({[4-(trifluoromethyl)pyridin-2-yl]carbamoyl}amino)phenyl]pyrrolo[2,1-f][1,2,4]triazin-7-yl}pyrrolidine-1-carboxylate] | 10 to 100 |
| CNC(=O)N1CCC(c2cc(-c3ccc(NC(=O)Nc4cc(C(F)(F)F)ccc4F)c(F)c3)c3c(N)ncnn23)CC1 [Example 209, 4-{4-amino-5-[3-fluoro-4-({[2-fluoro-5-(trifluoromethyl)phenyl]carbamoyl}amino)phenyl]pyrrolo[2,1-f][1,2,4]triazin-7-yl}-N-methylpiperidine-1-carboxamide] | 10 to 100 |
| Nc1ncnn2c(CCN3CCOCC3)cc(-c3cc(F)c(NC(=O)Nc4cc(C(F)(F)F)ccc4F)cc3F)c12 [Example 211, N-{4-[4-amino-7-(2-morpholin-4-ylethyl)pyrrolo[2,1-f][1,2,4]triazin-5-yl]-2,5-difluorophenyl}-N′-[2-fluoro-5-(trifluoromethyl)phenyl]urea] | 10 to 100 |
| Nc1ncnn2c(CCN3CCOCC3)cc(-c3ccc(NC(=O)Nc4cc(C(F)(F)F)ccc4F)c(F)c3)c12 [Example 212, N-{4-[4-amino-7-(2-morpholin-4-ylethyl)pyrrolo[2,1-f][1,2,4]triazin-5-yl]-2-fluorophenyl}-N′-[2-fluoro-5-(trifluoromethyl)phenyl]urea] | 10 to 100 |
| CN1CCN(CCc2cc(-c3ccc(NC(=O)Nc4cc(C(F)(F)F)ccc4F)c(F)c3)c3c(N)ncnn23)CC1 [Example 214, N-(4-{4-amino-7-[2-(4-methylpiperazin-1-yl)ethyl]pyrrolo[2,1-f][1,2,4]triazin-5-yl}-2-fluorophenyl)-N′-[2-fluoro-5-(trifluoromethyl)phenyl]urea] | < 10 |
| COC[C@@H]1CCCN1CCc1cc(-c2ccc(NC(=O)Nc3cc(C(F)(F)F)ccc3F)c(F)c2)c2c(N)ncnn12 [Example 215, N-[4-(4-amino-7-{2-[2-(methoxymethyl)pyrrolidin-1-yl]ethyl}pyrrolo-[2,1-f][1,2,4]triazin-5-yl)-2-fluorophenyl]-N′-[2-fluoro-5-(trifluoromethyl)phenyl]urea] | 10 to 100 |
| Nc1ncnn2c(CCN3CCCC3)cc(-c3ccc(NC(=O)Nc4cc(C(F)(F)F)ccc4F)c(F)c3)c12 [Example 216, N-{4-[4-amino-7-(2-pyrrolidin-1-ylethyl)pyrrolo[2,1-f][1,2,4]triazin-5-yl]-2-fluorophenyl}-N′-[2-fluoro-5-(trifluoromethyl)phenyl]urea] | 10 to 100 |
| Nc1ncnn2c(CCCN3CCOCC3)cc(-c3ccc(NC(=O)Nc4cc(C(F)(F)F)ccc4Cl)c(F)c3)c12 [Example 217, N-{4-[4-amino-7-(3-morpholin-4-ylpropyl)pyrrolo[2,1-f][1,2,4]triazin-5-yl]-2-fluorophenyl}-N′-[2-chloro-5-(trifluoromethyl)phenyl]urea] | 10 to 100 |
| CC(=O)N1CCC(c2cc(-c3ccc(NC(=O)Nc4cc(C(F)(F)F)ccc4F)c(Cl)c3)c3c(N)ncnn23)CC1 [Example 219, N-{4-[7-(1-acetylpiperidin-4-yl)-4-aminopyrrolo[2,1-f][1,2,4]triazin-5-yl]-2-chlorophenyl}-N′-[2-fluoro-5-(trifluoromethyl)phenyl]urea] | < 10 |
| Nc1ncnn2c(CCO)cc(-c3ccc(NC(=O)Nc4cc(C(F)(F)F)ccc4F)c(F)c3)c12 [Example 220, N-{4-[4-amino-7-(2-hydroxyethyl)pyrrolo[2,1-f][1,2,4]triazin-5-yl]-2-fluorophenyl}-N′-[2-fluoro-5-(trifluoromethyl)phenyl]urea] | < 10 |
| Cc1cc(-c2cc(CCCN3CCOCC3)n3ncnc(N)c23)ccc1NC(=O)Nc1cc(C(F)(F)F)ccc1F [Example 221, N-{4-[4-amino-7-(3-morpholin-4-ylpropyl)pyrrolo[2,1-f][1,2,4]triazin-5-yl]-2-methylphenyl}-N′-[2-fluoro-5-(trifluoromethyl)phenyl]urea] | < 10 |
| Nc1ncnn2c(CCCCN3CCOCC3)cc(-c3ccc(NC(=O)Nc4cc(C(F)(F)F)ccc4F)c(F)c3)c12 [Example 224, N-{4-[4-amino-7-(4-morpholin-4-ylbutyl)pyrrolo[2,1-f][1,2,4]triazin-5-yl]-2-fluorophenyl}-N′-[2-fluoro-5-(trifluoromethyl)phenyl]urea] | < 10 |
| Nc1ncnn2c(CCN3CCCOCC3)cc(-c3ccc(NC(=O)Nc4cc(C(F)(F)F)ccc4F)c(F)c3)c12 [Example 226, N-(4-{4-amino-7-[2-(1,4-oxazepan-4-yl)ethyl]pyrrolo[2,1-f][1,2,4]triazin-5-yl}-2-fluorophenyl)-N′-[2-fluoro-5-(trifluoromethyl)phenyl]urea] | < 10 |
| CC(C)(C)c1ccnc(NC(=O)Nc2ccc(-c3cc(CCN4CCOCC4)n4ncnc(N)c34)cc2F)c1 [Example 228, N-{4-[4-amino-7-(2-morpholin-4-ylethyl)pyrrolo[2,1-f][1,2,4]triazin-5-yl]-2-fluorophenyl}-N′-(4-tert-butylpyridin-2-yl)urea] | < 10 |
| Nc1ncnn2c(C3CCN(C(=O)C4CC4)CC3)cc(-c3ccc(NC(=O)Nc4cc(C(F)(F)F)ccc4F)c(Cl)c3)c12 [Example 230, N-(4-{4-amino-7-[1-(cyclopropylcarbonyl)piperidin-4-yl]pyrrolo[2,1-f][1,2,4]triazin-5-yl}-2-chlorophenyl)-N′-[2-fluoro-5-(trifluoromethyl)phenyl]urea] | 10 to 100 |
| Nc1ncnn2c(C3CCN(C(=O)CN4CCOCC4)CC3)cc(-c3ccc(NC(=O)Nc4cc(C(F)(F)F)ccc4F)c(Cl)c3)c12 [Example 231, N-(4-{4-amino-7-[1-(morpholin-4-ylacetyl)piperidin-4-yl]pyrrolo[2,1-f][1,2,4]triazin-3-yl}-2-chlorophenyl)-N′-[2-fluoro-5-(trifluoromethyl)phenyl]urea] | 10 to 100 |
| Nc1ncnn2c(C(=O)CO)cc(-c3ccc(NC(=O)Nc4cc(C(F)(F)F)ccc4F)c(F)c3)c12 [Example 234, N-[4-(4-amino-7-glycoloylpyrrolo[2,1-f][1,2,4]triazin-5-yl)-2-fluorophenyl]-N′-[2-fluoro-5-(trifluoromethyl)phenyl]urea] | 10 to 100 |
| Nc1ncnn2c(C3CCN(C4CC4)CC3)cc(-c3ccc(NC(=O)Nc4cc(C(F)(F)F)ccn4)c(F)c3)c12 [Example 235, N-{4-[4-amino-7-(1-cyclopropylpiperidin-4-yl)pyrrolo[2,1-f][1,2,4]triazin-5-yl]-2-fluorophenyl}-N′-[4-(trifluoromethyl)pyridin-2-yl]urea] | 10 to 100 |
| Nc1ncnn2c(C3CCN(C(=O)CO)CC3)cc(-c3ccc(NC(=O)Nc4cc(C(F)(F)F)ccn4)c(F)c3)c12 [Example 236, N-{4-[4-amino-7-(1-glycoloylpiperidin-4-yl)pyrrolo[2,1-f][1,2,4]triazin-5-yl]-2-fluorophenyl}-N′-[4-(trifluoromethyl)pyridin-2-yl]urea] | < 10 |
| CC(=O)N1CCC(c2cc(-c3ccc(NC(=O)Nc4cc(C(F)(F)F)ccn4)c(F)c3)c3c(N)ncnn23)CC1 [Example 237, N-{4-[7-(1-acetylpiperidin-4-yl)-4-aminopyrrolo[2,1-f][1,2,4]triazin-5-yl]-2-fluorophenyl}-N′-[4-(trifluoromethyl)pyridin-2-yl]urea] | < 10 |
| CN(C)CC(=O)N1CCC(c2cc(-c3ccc(NC(=O)Nc4cc(C(F)(F)F)ccc4F)c(Cl)c3)c3c(N)ncnn23)CC1 [Example 240, N-(4-{4-amino-7-[1-(N,N-dimethylglycyl)piperidin-4-yl]pyrrolo[2,1-f][1,2,4]triazin-5-yl}-2-chlorophenyl)-N′-[2-fluoro-5-(trifluoromethyl)phenyl]urea] | < 10 |
| COCCN1CCC(c2cc(-c3ccc(NC(=O)Nc4cc(C(F)(F)F)ccc4F)c(Cl)c3)c3c(N)ncnn23)CC1 [Example 241, N-(4-{4-amino-7-[1-(2-methoxyethyl)piperidin-4-yl]pyrrolo[2,1-f][1,2,4]triazin-5-yl}-2-chlorophenyl)-N′-[2-fluoro-5-(trifluoromethyl)phenyl]urea] | < 10 |
| Nc1ncnn2c(C3CCNCC3)cc(-c3ccc(NC(=O)Nc4cc(C(F)(F)F)ccc4F)cc3)c12 [Example 242, N-[4-(4-amino-7-piperidin-4-ylpyrrolo[2,1-f][1,2,4]triazin-5-yl)phenyl]-N′-[2-fluoro-5-(trifluoromethyl)phenyl]urea] | < 10 |
| CCOCCN1CCC(c2cc(-c3ccc(NC(=O)Nc4cc(C(F)(F)F)ccc4F)c(Cl)c3)c3c(N)ncnn23)CC1 [Example 243, N-(4-{4-amino-7-[1-(2-ethoxyethyl)piperidin-4-yl]pyrrolo[2,1-f][1,2,4]triazin-5-yl}-2-chlorophenyl)-N′-[2-fluoro-5-(trifluoromethyl)phenyl]urea] | 10 to 100 |
| Nc1ncnn2c(CCN3CCOCC3)cc(-c3ccc(NC(=O)Nc4cc(C(F)(F)F)ccn4)c(F)c3)c12 [Example 250, 1-{4-[4-amino-7-(2-morpholin-4-ylethyl)pyrrolo[2,1-f][1,2,4]triazin-5-yl]-2-fluorophenyl}-3-[4-(trifluoromethyl)pyridin-2-yl]urea] | 10 to 100 |
| CC(O)c1cc(-c2ccc(NC(=O)Nc3cc(C(F)(F)F)ccc3F)c(F)c2)c2c(N)ncnn12 (stereo not drawn) [Example 252, N-{4-[4-amino-7-(1-hydroxyethyl)pyrrolo[2,1-f][1,2,4]triazin-5-yl]-2-fluorophenyl}-N′-[2-fluoro-5-(trifluoromethyl)phenyl]urea] | 10 to 100 |
| CC(=O)c1cc(-c2ccc(NC(=O)Nc3cc(C(F)(F)F)ccc3F)c(F)c2)c2c(N)ncnn12 [Example 253, N-[4-(7-acetyl-4-aminopyrrolo[2,1-f][1,2,4]triazin-5-yl)-2-fluorophenyl]-N′-[2-fluoro-5-(trifluoromethyl)phenyl]urea] | < 10 |
